Data taken from the supplement of paper PMC9663587.

Assays:
HCC1187 = assay: GRmax, 72 h; higher = less effect;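 also: breast cell lines in 384-well plates, nine doses across a 10^4 range, Dye Drop imaging of viable cells vs DMSO and time-zero plates, GR 0 means no net growth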
184A1 = assay: GRmax, 72 h; higher = less effect;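 also: breast cell lines in 384-well plates, nine doses across a 10^4 range, Dye Drop imaging of viable cells vs DMSO and time-zero plates, GR 0 means no net growth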
HCC1937 = assay: GRmax, 72 h; higher = less effect;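 also: breast cell lines in 384-well plates, nine doses across a 10^4 range, Dye Drop imaging of viable cells vs DMSO and time-zero plates, GR 0 means no net growth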
HCC1569 = assay: GRmax, 72 h; higher = less effect;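 also: breast cell lines in 384-well plates, nine doses across a 10^4 range, Dye Drop imaging of viable cells vs DMSO and time-zero plates, GR 0 means no net growth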
UACC812 = assay: GRmax, 72 h; higher = less effect
ZR7530 = assay: GRmax, 72 h; higher = less effect
HCC1806 = assay: GRmax, 72 h; higher = less effect
CAL120 = assay: GRmax, 72 h; higher = less effect
HCC1428 = assay: area over the GR curve, 72 h; higher = more effect;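 also: Dye Drop or Deep Dye Drop imaging of viable cells in 384-well plates (Hoechst nuclei, LIVE/DEAD dye), nine half-log doses, GR normalized to DMSO controls and time-zero plates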
HCC1500 = assay: area over the GR curve, 72 h; higher = more effect;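 also: Dye Drop or Deep Dye Drop imaging of viable cells in 384-well plates (Hoechst nuclei, LIVE/DEAD dye), nine half-log doses, GR normalized to DMSO controls and time-zero plates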
MDAMB157 = assay: area over the GR curve, 72 h; higher = more effect;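 also: Dye Drop or Deep Dye Drop imaging of viable cells in 384-well plates (Hoechst nuclei, LIVE/DEAD dye), nine half-log doses, GR normalized to DMSO controls and time-zero plates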

Compound | GRmax, 72 h (HCC1187) [GR] | GRmax, 72 h (184A1) [GR] | GRmax, 72 h (HCC1937) [GR] | GRmax, 72 h (HCC1569) [GR] | GRmax, 72 h (UACC812) [GR] | GRmax, 72 h (ZR7530) [GR] | GRmax, 72 h (HCC1806) [GR] | GRmax, 72 h (CAL120) [GR] | area over the GR curve (HCC1428) [GR] | area over the GR curve (HCC1500) [GR] | area over the GR curve (MDAMB157) [GR] | GRmax, 72 h (HCC1937; main component drawn) [GR] | GRmax, 72 h (HCC1806; main component drawn) [GR] | GRmax, 72 h (CAL120; main component drawn) [GR] | area over the GR curve (HCC1428; main component drawn) [GR] | area over the GR curve (HCC1500; main component drawn) [GR] | area over the GR curve (MDAMB157; main component drawn) [GR]
CCOc1cc2ncc(C#N)c(Nc3ccc(OCc4ccccn4)c(Cl)c3)c2cc1NC(=O)/C=C/CN(C)C [Neratinib/HKI272] (max 3.162 µM) | 0.421 | 0.162 | 0.3 | 0.117 | -0.756 | -0.532 | -0.0883 | -0.261 | 0.101 | 0.165 | 0.191 | – | – | – | – | – | –
Cc1cc(C(C)Nc2ccccc2)c2nc(N3CCOCC3)cc(=O)n2c1 (configuration not stated) [TGX221] (max 10 µM) | 0.46 | 1 | 0.838 | 0.774 | 0.0432 | 0.925 | 0.982 | 1.02 | 0.0058 | 0.0613 | -0.005 | – | – | – | – | – | –
Cc1c(N)nc([C@H](CC(N)=O)NC[C@H](N)C(N)=O)nc1C(=O)N[C@H](C(=O)N[C@H](C)[C@@H](O)[C@H](C)C(=O)N[C@H](C(=O)NCCc1nc(-c2nc(C(=O)NCCC[S+](C)C)cs2)cs1)[C@@H](C)O)[C@@H](OC1OC(CO)C(O)C(O)C1OC1OC(CO)C(O)C(OC(N)=O)C1O)c1cnc[nH]1 (some centres not stated) [Bleomycin] (max 10 µM) | – | – | – | – | – | – | – | – | – | – | – | 0.139 | 0.481 | 0.0886 | 0.178 | 0.147 | 0.281
COc1cc2nccc(Oc3ccc(NC(=O)C4(C(=O)Nc5ccc(F)cc5)CC4)cc3)c2cc1OC [Cabozantinib] (max 10 µM) | 0.222 | 0.121 | 0.76 | 0.723 | 0.298 | 0.449 | 0.691 | 0.257 | 0.0108 | -0.0192 | 0.21 | – | – | – | – | – | –
CN1CCN(CCOc2cc(OC3CCOCC3)c3c(Nc4c(Cl)ccc5c4OCO5)ncnc3c2)CC1 [Saracatinib/AZD0530] (max 10 µM) | 0.15 | 0.24 | 0.651 | 0.161 | -0.847 | -0.159 | 0.221 | 0.526 | 0.0609 | 0.433 | 0.17 | – | – | – | – | – | –
O=C(CCCCCCC(=O)Nc1ccccc1)NO [Vorinostat] (max 10 µM) | -0.467 | -0.0468 | -0.0085 | -0.294 | -0.487 | -0.318 | 0.0178 | -0.228 | 0.339 | 0.301 | 0.297 | – | – | – | – | – | –
CO[C@H]1C[C@@H]2CC[C@@H](C)[C@@](O)(O2)C(=O)C(=O)N2CCCC[C@H]2C(=O)O[C@H]([C@H](C)C[C@@H]2CC[C@@H](OCCO)[C@H](OC)C2)CC(=O)[C@H](C)/C=C(\C)[C@@H](O)[C@@H](OC)C(=O)[C@H](C)C[C@H](C)/C=C/C=C/C=C/1C [Everolimus] (max 10 µM) | 0.568 | 0.501 | 0.632 | 0.555 | -0.0713 | 0.169 | 0.817 | 0.527 | 0.519 | 1.26 | 0.394 | – | – | – | – | – | –
CCNC(=O)c1noc(-c2cc(C(C)C)c(O)cc2O)c1-c1ccc(CN2CCOCC2)cc1 [Luminespib/NVP-AUY922] (max 1 µM) | -0.476 | 0.0336 | -0.187 | -0.0081 | -0.521 | 0.1 | -0.175 | -0.115 | 0.637 | 0.546 | 0.615 | – | – | – | – | – | –
CCc1cncnc1N1CCN(Cc2nc3ccc(C(F)(F)F)cc3[nH]2)CC1 (max 10 µM) | 0.575 | 1.02 | 0.769 | 0.7 | -0.22 | 0.113 | 1.15 | 0.924 | -0.0224 | 0.182 | 0.119 | – | – | – | – | – | –
CC(=O)Nc1cccc(-n2c(=O)n(C3CC3)c(=O)c3c(Nc4ccc(I)cc4F)n(C)c(=O)c(C)c32)c1 (max 1 µM) | 0.76 | 0.187 | 0.689 | 0.522 | -0.119 | 0.405 | 0.704 | 0.415 | 0.0695 | 0.212 | 0.301 | – | – | – | – | – | –
CC(=O)c1c(C)c2cnc(Nc3ccc(N4CCNCC4)cn3)nc2n(C2CCCC2)c1=O (max 3.162 µM) | 0.646 | 0.128 | 1.08 | 0.983 | -0.142 | 0.266 | 0.692 | 0.669 | 0.314 | 0.11 | -0.0037 | – | – | – | – | – | –
COc1cccc2c1C(=O)c1c(O)c3c(c(O)c1C2=O)C[C@@](O)(C(=O)CO)C[C@@H]3O[C@H]1C[C@H](N)[C@H](O)[C@H](C)O1 [Doxorubicin] (max 3.162 µM) | -0.83 | 0.028 | -0.166 | -0.132 | -0.919 | -0.274 | -0.324 | -0.247 | 0.895 | 0.751 | 0.966 | – | – | – | – | – | –
COc1cc([C@@H]2c3cc4c(cc3[C@@H](O[C@@H]3O[C@@H]5CO[C@@H](C)O[C@H]5[C@H](O)[C@H]3O)[C@H]3COC(=O)[C@H]23)OCO4)cc(OC)c1O [Etoposide] (max 10 µM) | – | – | -0.118 | – | – | – | -0.563 | -0.166 | 0.39 | 0.218 | 0.609 | – | – | – | – | – | –
CC(=O)O[C@H]1C(=O)[C@@]2(C)[C@H]([C@H](OC(=O)c3ccccc3)[C@]3(O)C[C@H](OC(=O)[C@H](O)[C@@H](NC(=O)c4ccccc4)c4ccccc4)C(C)=C1C3(C)C)[C@]1(OC(C)=O)CO[C@@H]1C[C@@H]2O [Paclitaxel] (max 1 µM) | -0.754 | -0.268 | 0.0104 | 0.0183 | -0.852 | -0.597 | -0.211 | -0.199 | 0.507 | 0.609 | 0.946 | – | – | – | – | – | –
CC[C@@]1(O)C(=O)OCc2c1cc1n(c2=O)Cc2cc3c(CN(C)C)c(O)ccc3nc2-1 [Topotecan] (max 10 µM) | – | – | -0.428 | – | – | – | -0.546 | -0.336 | 0.835 | 1.22 | 1.08 | – | – | – | – | – | –
CCN1CCN(Cc2ccc(Nc3ncc(F)c(-c4cc(F)c5nc(C)n(C(C)C)c5c4)n3)nc2)CC1 (max 10 µM) | 0.0999 | -0.105 | 0.302 | 0.116 | -0.603 | 0.125 | -0.444 | -0.141 | 0.636 | 0.342 | 0.266 | – | – | – | – | – | –
Cc1cc(Nc2ncc(Cl)c(Nc3ccccc3S(=O)(=O)C(C)C)n2)c(OC(C)C)cc1C1CCNCC1 [Ceritinib/LDK378] (max 10 µM) | 0.121 | -0.728 | -0.573 | -0.83 | -0.983 | 0.416 | -0.406 | -0.432 | 0.295 | 0.274 | 0.46 | – | – | – | – | – | –
